Key:
[1] = molecular target: T1, Protein kinase C alpha type (Homo sapiens, UniProt P17252); assay: Displacement of phorbol 12,13-dibutyrate (PDBU) from recombinant Protein kinase C alpha
[2] = molecular target: T1, Protein kinase C alpha type; assay: Displacement of phorbol 12,13-dibutyrate (PDBU) from recombinant Protein kinase C alpha (Inactive at 300 nM)

Compound | Ki [1] | Ki [2]
CC(C)[C@H]1C(=O)N[C@H](CO)c2ccccc2N1C | 127 µM | –
CC(C)[C@H]1C(=O)NC(CO)c2ccccc2N1C (single isomer, unassigned) | – | Not Active
CCCCCCCCC#Cc1ccc2c(c1)[C@@H](CO)NC(=O)[C@H](C(C)C)N2C | 21 µM | –

Reference: ChEMBL document CHEMBL1131708, “Synthesis and protein kinase C binding activity of benzolactam-V7” (Bioorg Med Chem Lett, 1999)
